From US8835466B2, “Synthesis and uses of pyroglutamic acid derivatives” (Prodimed, S.A., priority 2006, dated 2014)

Legend:
[1] = system: ASB XIV cells (pulmonary squamous cell carcinoma); experiment: Effect of isomers and BLAS on in vivo tumour growth, ASB XIV tumours (Example 8); set-up: species or system Balb/c mice; details: 260 ng/mouse i.p. days 6, 7 and 14
Description: This assay was made in order to compare the effect of each stereoisomer on in vivo tumour growth in mice with the effect of the mixture of all of them challenged with ASB XIV tumours. The stereoisomers assayed were the same as in example 7 above plus a mixture of all of them (BLAS). The equipment (when needed), reagents, dose, vehicle and route and volume of administration were the same as in example 7.
ASB XIV is a pulmonary squamous cell carcinoma originated in Balb/c mouse strain, and therefore syngeneic in mice with Balb/c genetic background.
ASB XIV cells (CLS, Eppelheim, Germany) were maintained in vitro by serial passages every 3-4 days. Cultures were performed with RPMI medium medium (RPMI, 10% foetal calf serum, 2 mM L-glutamine, non essential aminoacids, 1 mM sodium pyruvate, 20 mM HEPES, 80 μg/mL gentamycin; all of them were purchased from Sigma, St. Louis, Mo., USA) by seeding 5×10^6 cells onto 75 cm^2 culture flasks. Tumour cells collected from 48 hour cultures upon trypsinization (Sigma, St. Louis, Mo., USA) were used as source of ASB XIV cells in the present example.
• BLAS (mixture of isomers 1, 2, 3 and 4) at a concentration of 65 μg/mL in sterile physiological saline. Isomer 1 (9b) at a concentration of 65 μg/mL in sterile physiological saline. • Isomer 2 (9c) at a concentration of 65 μg/mL in sterile physiological saline. • Isomer 3 (9a) at a concentration of 65 μg/mL in sterile physiological saline. • Isomer 4 (9d) at a concentration of 65 μg/mL in sterile physiological saline. Placebo
Tumours were established by subcutaneous inoculation in the right hind flank. Mice (Balb/c) were inoculated with 0.2 mL containing 2×10^5 viable ASB XIV cells. The day of subcutaneous inoculation will be considered Day 0 of the test.
Mice were observed daily and the tumour size recorded twice a week. This was carried out by measuring two perpendicular diameters (d1/d2) with a calliper. These measures were used to obtain both tumour surface and volume: Tumour surface=d1×d2(mm^2) Tumour volume=d1×d2^2×½(mm^3)
(§1) Results were expressed as single values and/or as the mean±SD or median from each experimental group.
A case-control study was performed with treated and control mice in order to determine whether differences between BLAS or each diferent stereoisomer and administration of placebo were present. […] The U-test of Mann Withney was chosen for being one of the better known non-parametrical tests, anyway, results for this test are equivalent both to those of Wilcoxon's sum of ranges and Kruskal-Wallis two-groups test.
Due to the high dispersion of data, outlayers (animals beyond percentile 10 or above percentile 90 for tumour surface at day 33) were excluded of the study.

[2] = system: Renca cells (renal cell carcinoma); experiment: Effect of isomers on in vivo tumour growth in mice challenged with Renca cells (Example 7); set-up: species or system Balb/c mice; details: 260 ng/mouse i.p. days 6, 7, 14
Description: This assay was made in order to check the effect of each stereoisomer on in vivo tumour growth in mice challenged with Renca cells. Their effect was compared with placebo. The stereoisomers assayed were:
Renca is a renal cell carcinoma originated in Balb/c mouse strain, and therefore syngeneic in mice with Balb/c genetic background [Melder R J et al., Cancer Immunol. Immunother., 2005, 54:535-547; Felluga B et al., 1969, J. Natl. Cancer Inst. 43:319-333]. Renca is considered a moderate immunogenic tumour and used as suitable model for testing immunointervention approaches [Salup R R, et al., 1992, The Journal of Urology, 147:1120-1123].
Renca cells (CLS, Eppelheim, Germany) were maintained in vitro by serial passages every 3-4 days. Cultures were performed with RPMI medium medium (RPMI, 10% foetal calf serum, 2 mM L-glutamine, non essential amino acids, 1 mM sodium pyruvate, 20 mM HEPES, 80 μg/mL gentamycin; all of them were purchased from Sigma, St. Louis, Mo., USA) by seeding 5×10^6 cells onto 75 cm^2 culture flasks. Tumour cells collected from 48 hour cultures upon trypsinization (Sigma, St. Louis, Mo., USA) were used as source of Renca cells for the studies described below.
Each isomer was tested at the dose levels of 260 ng administered on days 6, 7 and 14 after tumour inoculation.
The treatments were given by intraperitoneal route (i.p.). The volume inoculated was 0.2 mL/animal. This route was chosen because it is the one described in the original method [Pérez S, et al., 2003, Clinical Cancer Research. 9:5776-5785].
Tumours were established by subcutaneous inoculation in the right hind flank. Mice (Balb/c) were inoculated with 0.2 mL containing 10^5 viable Renca cells. The day of subcutaneous inoculation will be considered Day 0 of the test.
Mice were observed daily and the tumour size recorded twice a week. This was carried out by measuring two perpendicular diameters (L/W) with a calliper. These measures were used to obtain both tumour surface and volume: Tumour surface=L×W(mm^2) Tumour volume=L×W^2×½(mm^3)
as §1
A case-control study was performed with treated and control mice in order to determine whether differences between isomers and administration of placebo were present. […] The U-test of Mann Withney was chosen for being one of the better known non-parametrical tests, anyway, results for this test are equivalent both to those of Wilcoxon's sum of ranges and Kruskal-Wallis two-groups test.
Due to the high dispersion of data, outlayers (animals beyond percentile 25 or above percentile 75 for tumour surface at day 25) were excluded of the study.

[3] = day 12 after tumour inoculation
[4] = day 15 after tumour inoculation
[5] = day 19 after tumour inoculation
[6] = day 22 after tumour inoculation
[7] = day 26 after tumour inoculation
[8] = day 29 after tumour inoculation
[9] = day 33 after tumour inoculation
[10] = day 11 after tumour inoculation

Br.N[C@@]1(C[n+]2ccccc2)C[C@@H](C(=O)O)NC1=O.[Br-] (single isomer, unassigned; isomer 1) [isomer 1, 3R,5S-1-(3-Amino-5-carboxy-2-oxopyrrolidin-3-ylmethyl)pyridinium bromide hidrobromide]
Tumour surface, overall values (Mean) ([1]; day 0 after tumour inoculation): 0 mm^2 | Tumour surface, overall values (Median) ([1]; day 0 after tumour inoculation): 0 mm^2 | Tumour volume, overall values (Mean) ([1]; day 0 after tumour inoculation): 0 mm^3 | Tumour volume, overall values (Median) ([1]; day 0 after tumour inoculation): 0 mm^3 | Tumour surface, overall values (Mean) ([1]; day 8 after tumour inoculation): 0 mm^2 | Tumour surface, overall values (Median) ([1]; day 8 after tumour inoculation): 0 mm^2 | Tumour volume, overall values (Mean) ([1]; day 8 after tumour inoculation): 0 mm^3 | Tumour volume, overall values (Median) ([1]; day 8 after tumour inoculation): 0 mm^3 | Tumour surface, overall values (Mean) [1, 3]: 0.32 mm^2 | Tumour surface, overall values (Median) [1, 3]: 0 mm^2 | Tumour volume, overall values (Mean) [1, 3]: 0.45 mm^3 | Tumour volume, overall values (Median) [1, 3]: 0 mm^3 | Tumour surface, overall values (Mean) [1, 4]: 3.45 mm^2 | Tumour surface, overall values (Median) [1, 4]: 0 mm^2 | Tumour volume, overall values (Mean) [1, 4]: 5.34 mm^3 | Tumour volume, overall values (Median) [1, 4]: 0 mm^3 | Tumour surface, overall values (Mean) [1, 5]: 19.65 mm^2 | Tumour surface, overall values (Median) [1, 5]: 16 mm^2 | Tumour volume, overall values (Mean) [1, 5]: 53.37 mm^3 | Tumour volume, overall values (Median) [1, 5]: 32 mm^3 | Tumour surface, overall values (Mean) [1, 6]: 46.81 mm^2 | Tumour volume, overall values (Mean) [1, 6]: 179.79 mm^3 | Tumour surface, overall values (Mean) [1, 7]: 92.52 mm^2 | Tumour surface, overall values (Median) [1, 7]: 72 mm^2 | Tumour volume, overall values (Mean) [1, 7]: 474.10 mm^3 | Tumour volume, overall values (Median) [1, 7]: 288 mm^3 | Tumour surface, overall values (Mean) [1, 8]: 125.16 mm^2 | Tumour surface, overall values (Median) [1, 8]: 110 mm^2 | Tumour volume, overall values (Mean) [1, 8]: 733.26 mm^3 | Tumour volume, overall values (Median) [1, 8]: 550 mm^3 | Tumour surface, overall values (Mean) [1, 9]: 165.65 mm^2 | Tumour surface, overall values (Median) [1, 9]: 154 mm^2 | Tumour volume, overall values (Mean) [1, 9]: 1114.37 mm^3 | Tumour volume, overall values (Median) [1, 9]: 864 mm^3 | Tumour surface, overall values (Mean) ([2]; day 0 after tumour inoculation): 0 mm^2 | Tumour surface, overall values (Median) ([2]; day 0 after tumour inoculation): 0 mm^2 | Tumour volume, overall values (Mean) ([2]; day 0 after tumour inoculation): 0 mm^3 | Tumour volume, overall values (Median) ([2]; day 0 after tumour inoculation): 0 mm^3 | Tumour surface, overall values (Median) [2, 10]: 0 mm^2 | Tumour volume, overall values (Median) [2, 10]: 0 mm^3

Br.N[C@@]1(C[n+]2ccccc2)C[C@H](C(=O)O)NC1=O.[Br-] (single isomer, unassigned; isomer 2) [isomer 2, 3R,5R-1-(3-Amino-5-carboxy-2-oxopyrrolidin-3-ylmethyl)pyridinium bromide hidrobromide]
Tumour surface, overall values (Mean) ([1]; day 0 after tumour inoculation): 0 mm^2 | Tumour surface, overall values (Median) ([1]; day 0 after tumour inoculation): 0 mm^2 | Tumour volume, overall values (Mean) ([1]; day 0 after tumour inoculation): 0 mm^3 | Tumour volume, overall values (Median) ([1]; day 0 after tumour inoculation): 0 mm^3 | Tumour surface, overall values (Mean) ([1]; day 8 after tumour inoculation): 0 mm^2 | Tumour surface, overall values (Median) ([1]; day 8 after tumour inoculation): 0 mm^2 | Tumour volume, overall values (Mean) ([1]; day 8 after tumour inoculation): 0 mm^3 | Tumour volume, overall values (Median) ([1]; day 8 after tumour inoculation): 0 mm^3 | Tumour surface, overall values (Mean) [1, 3]: 0.71 mm^2 | Tumour surface, overall values (Median) [1, 3]: 0 mm^2 | Tumour volume, overall values (Mean) [1, 3]: 1 mm^3 | Tumour volume, overall values (Median) [1, 3]: 0 mm^3 | Tumour surface, overall values (Mean) [1, 4]: 6.19 mm^2 | Tumour surface, overall values (Median) [1, 4]: 0 mm^2 | Tumour volume, overall values (Mean) [1, 4]: 12.68 mm^3 | Tumour volume, overall values (Median) [1, 4]: 0 mm^3 | Tumour surface, overall values (Mean) [1, 5]: 29.84 mm^2 | Tumour surface, overall values (Median) [1, 5]: 25 mm^2 | Tumour volume, overall values (Mean) [1, 5]: 102.44 mm^3 | Tumour volume, overall values (Median) [1, 5]: 62.5 mm^3 | Tumour surface, overall values (Mean) [1, 6]: 63.55 mm^2 | Tumour surface, overall values (Median) [1, 6]: 56 mm^2 | Tumour volume, overall values (Mean) [1, 6]: 292.39 mm^3 | Tumour volume, overall values (Median) [1, 6]: 196 mm^3 | Tumour surface, overall values (Mean) [1, 7]: 105.97 mm^2 | Tumour surface, overall values (Median) [1, 7]: 110 mm^2 | Tumour volume, overall values (Mean) [1, 7]: 603.66 mm^3 | Tumour volume, overall values (Median) [1, 7]: 550 mm^3 | Tumour surface, overall values (Mean) [1, 8]: 142.45 mm^2 | Tumour surface, overall values (Median) [1, 8]: 144 mm^2 | Tumour volume, overall values (Mean) [1, 8]: 913.90 mm^3 | Tumour volume, overall values (Median) [1, 8]: 864 mm^3 | Tumour surface, overall values (Mean) [1, 9]: 188.87 mm^2 | Tumour surface, overall values (Median) [1, 9]: 210 mm^2 | Tumour volume, overall values (Mean) [1, 9]: 1377.02 mm^3 | Tumour volume, overall values (Median) [1, 9]: 1436.5 mm^3 | Tumour surface, overall values (Mean) ([2]; day 0 after tumour inoculation): 0 mm^2 | Tumour surface, overall values (Median) ([2]; day 0 after tumour inoculation): 0 mm^2 | Tumour volume, overall values (Mean) ([2]; day 0 after tumour inoculation): 0 mm^3 | Tumour volume, overall values (Median) ([2]; day 0 after tumour inoculation): 0 mm^3 | Tumour surface, overall values (Median) [2, 10]: 0 mm^2 | Tumour volume, overall values (Median) [2, 10]: 0 mm^3 | Tumour surface, overall values (Median) ([2]; day 14 after tumour inoculation): 9 mm^2
